Assays:
[1] = Acute delivery: injection of tracking dye subcutaneously and above the IP wall, dye diffusion and gross visual examination of internal organs; assay type: in vivo, rat
Procedure: (§1) Animals. Male Lewis Inbred rats, six to eight weeks of age, were obtained from Charles River Laboratories and were acclimatized for five days before use. Animals were anesthetized with sodium pentobarbital before implants and dye injections.
(§2) Dyes. Isosulfan blue, india ink, and goat anti rabbit horse radish peroxidase (HRP) were used.
Acute delivery. 40 microliters (μl) of isosulfan blue was injected subcutaneously and above the IP wall. The location of the injection was varied to detect the site which would drain into the para-aortic lymph nodes. Dye diffusion was monitored at five minutes and thirty minutes. The animals were then sacrificed and a gross visual examination of the internal organs was performed to identify dye drainage into internal organs.

[2] = Chronic delivery: continuous infusion of dye(s) by Alzet miniosmotic pump for fourteen days, drainage to lymph nodes (photographs, OPD substrate development, histology); assay type: in vivo, rat; settings: 14 days, open ended catheter, tip became occluded
Text: as §1, §2
Chronic delivery. Alzet® miniosmotic pumps with a delivery rate of 0.25 or 0.5 microliter/hour (μl/hr) were used to continuously infuse dye(s) for fourteen days. The animals were sacrificed and a gross visual examination of the internal organs was performed to identify dye drainage into internal organs. Lymph nodes were collected, photographed, and analyzed as described in Table 1, below.

## CCN(CC)c1ccc(C(=C2C=CC(=[N+](CC)CC)C=C2)c2cc(S(=O)(=O)[O-])ccc2S(=O)(=O)[O-])cc1.[Na+] [isosulfan blue, Isosulfan blue]
[1]; 40 μl, subcutaneous injection, 30 minutes
  dye diffusion after subcutaneous injection: Minimal diffusion
[1]; injection site 1 cm above the hip joint, covered inguinal and popliteal beds
  staining of internal organs after subcutaneous injection: no internal organs being stained
[1]; peritoneal wall, one centimeter above the hip joint
  dye diffusion after injection into the peritoneal wall: minimal diffusion
[1]; peritoneal wall, one centimeter above the hip joint, covered inguinal and popliteal beds
  staining of internal organs after peritoneal wall injection: no internal organs being stained
[2]
  dye in lymph nodes after chronic delivery: not observed
